Results from US6706744B2, “Glucagon antagonists/inverse agonists” (Novo Nordisk A/S, priority 2000, dated 2004).

Key:
[1] = biological target: T1, human GIP receptor (Homo sapiens, UniProt P48546); assay: GIP binding assay; settings: membranes of BHK cells transfected with human GIP receptor; 125I-GIP tracer; SPA
T1 construct: expressed in transfected cells; host or cells: BHK (baby hamster kidney) cells; membrane preparation
T1 sequence (P48546 22-466): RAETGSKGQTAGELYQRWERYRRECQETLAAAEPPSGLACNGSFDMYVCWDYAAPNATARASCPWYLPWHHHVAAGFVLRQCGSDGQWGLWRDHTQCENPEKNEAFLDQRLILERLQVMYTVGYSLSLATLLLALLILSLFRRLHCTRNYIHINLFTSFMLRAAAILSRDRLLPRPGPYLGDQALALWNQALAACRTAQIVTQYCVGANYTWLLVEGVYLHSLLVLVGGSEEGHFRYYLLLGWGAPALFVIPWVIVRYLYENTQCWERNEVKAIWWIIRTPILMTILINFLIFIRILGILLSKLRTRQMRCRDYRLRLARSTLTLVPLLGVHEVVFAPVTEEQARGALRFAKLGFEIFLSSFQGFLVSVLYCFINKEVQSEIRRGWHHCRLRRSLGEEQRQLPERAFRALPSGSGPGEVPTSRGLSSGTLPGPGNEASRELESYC
Experimental: (§1) BHK (baby hamster kidney cell line) cells are transfected with the human GIP receptor and a membrane preparation of the cells is prepared. Wheat Germ Agglutinin derivatized SPA beads containing a scintillant (WGA beads) (Amersham) bound the membranes. ^125I-GIP bound to human GIP receptor in the membranes and excited the scintillant in the WGA beads to light emission. GIP or samples binding to the receptor competed with ^125I-GIP.
(§2) All steps in the membrane preparation are kept on ice or performed at 4° C. BHK cells are harvested and centrifuged. The pellet is resuspended in homogenisation buffer (25 mM HEPES, pH=7.4, 2.5 mM CaCl2, 1.0 mM MgCl2, 250 mg/l bacitracin, 0.1 mM Pefabloc), homogenised 2×10 sec using Polytron 10-35 homogenizer (Kinematica) and added the same amount of homogenisation buffer as used for resuspension. After centrifugation (15 min at 2000×g) the supernatant is transferred to cold centrifuge tubes and centrifuged for 45 min at 40.000×g. The pellet is resuspended in homogenisation buffer, homogenised 2×10 sec (Polytron) and additional homogenisation buffer is added. The suspension is centrifuged for 45 min at 40.000×g and the pellet is resuspended in resuspension buffer (25 mM HEPES, pH=7.4, 2.5 mM CaCl2, 1.0 mM MgCl2) and homogenised 2×10 sec. (Polytron). The protein concentration is normally around 1.75 mg/ml. Stabilisation buffer (25 mM HEPES, pH=7.4, 2.5 mM CaCl2, 1.0 mM MgCl2, 1% bovine serum albumin, 500 mg/l bacitracin, 2.5 M sucrose) is added and the membrane preparation is stored at −80° C.
The GIP binding assay is carried out in opti plates (Polystyrene Microplates, Packard). 50 μl assay buffer (25 mM HEPES, pH=7.5, 2.5 mM CaCl2, 1.0 mM MgCl2, 0.003% Tween-20, 0.005% bacitracin, 0.05% sodium azide) and 5 μl GIP or test compound (in DMSO) are added to each well. 50 μl tracer (^125I-porcine GIP, 50.000 cpm) and 50 μl membranes (20 μg) containing the human GIP receptor are then added to the wells. Finally 50 μl WGA beads containing 1 mg beads are transferred to the well. The opti plates are incubated for 3.5 hours on a shaker and then settled for 8-48 hours. The opti plates are counted in a Topcounter. Non-specific binding is determined with 500 nM of GIP.

[2] = biological target: T2, human glucagon receptor (Homo sapiens, UniProt P47871); assay: Glucagon binding assay (II); settings: membranes of BHK cells transfected with human glucagon receptor; 125I-glucagon tracer; SPA
T2 construct: expressed in transfected cells; host or cells: BHK (baby hamster kidney) cells; membrane preparation
Experimental: Glucagon Binding Assay (II)
as §1, with “human glucagon” for “human GIP”, “membranes. ^125I-glucagon” for “membranes. ^125I-GIP”, “emission. Glucagon” for “emission. GIP”, “with ^125I-glucagon.” for “with ^125I-GIP.”
as §2, with “0, 1” for “0.1”
The glucagon binding assay is carried out in opti plates (Polystyrene Microplates, Packard). 50 μL assay buffer (25 mM HEPES, pH=7.5, 2.5 mM CaCl2, 1.0 mM MgCl2, 0.003% Tween-20, 0.005% bacitracin, 0.05% sodium azide) and 5 μl glucagon or test compound (in DMSO) are added to each well. 50 μl tracer (^125I-porcine glucagon, 50.000 cpm) and 50 μl membranes (7.5 μg) containing the human glucagon receptor are then added to the wells. Finally 50 μl WGA beads containing 1 mg beads are transferred to the well. The opti plates are incubated for 4 hours on a shaker and then settled for 8-48 hours. The opti plates are counted in a Topcounter. Non-specific binding is determined with 500 nM of glucagon.

T2 sequence (P47871 26-477): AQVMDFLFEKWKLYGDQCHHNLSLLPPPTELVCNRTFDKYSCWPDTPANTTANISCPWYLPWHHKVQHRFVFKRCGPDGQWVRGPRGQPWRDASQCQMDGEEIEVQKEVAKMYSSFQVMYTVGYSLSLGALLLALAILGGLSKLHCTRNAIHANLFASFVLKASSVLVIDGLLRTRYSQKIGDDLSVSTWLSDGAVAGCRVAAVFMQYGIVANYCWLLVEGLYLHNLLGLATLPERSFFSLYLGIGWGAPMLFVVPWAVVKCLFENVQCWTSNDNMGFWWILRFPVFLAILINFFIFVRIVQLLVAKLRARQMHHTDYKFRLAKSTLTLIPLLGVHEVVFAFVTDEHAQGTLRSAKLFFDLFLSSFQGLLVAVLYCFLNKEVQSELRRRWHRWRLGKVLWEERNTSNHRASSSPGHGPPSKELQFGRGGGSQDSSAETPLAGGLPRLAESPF

SMILES | IC50 [1] [nM] | IC50 [2] [nM] | melting point [°C]
O=C(O)CCNC(=O)c1ccc(CN(C(=O)Nc2ccc(OC(F)(F)F)c(CO)c2)c2ccc(C3=CCCCC3)cc2)cc1 [Example 11, 3-{4-[1-(4-Cyclohex-1-enylphenyl)-3-(3-hydroxymethyl-4-trifluoromethoxyphenyl)ureidomethyl]benzoylamino}propionic acid] | 152 | 64 | 
O=C(O)CCNC(=O)c1ccc(CN(C(=O)Nc2cccc(OC(F)(F)F)c2)c2ccc(C3=CCCCC3)cc2)cc1 [Example 3, 3-{4-[3-(3-Trifluoromethoxyphenyl)-1-(4-cyclohex-1-enylphenyl)ureidomethyl]benzoylamino}propionic acid] | 34 | 25 | 
C[C@H](NC(=O)N(Cc1ccc(C(=O)NCCC(=O)O)cc1)c1ccc(C2CCCCC2)cc1)c1ccc(Cl)cc1 [Example 1, 3-{4-[3-[1(S)-(4-Chlorophenyl)ethyl]1-(4-cyclohexylphenyl)ureidomethyl]benzoylamino}propionic acid] | 644 | 64 | 
O=C(O)CCNC(=O)c1ccc(CN(C(=O)Nc2cccc(Br)c2)c2ccc(C3=CCCCC3)cc2)cc1 [Example 2, 3-{4-[3-(3-Bromophenyl)-1-(4-cyclohex-1-enylphenyl)ureidomethyl]benzoylamino}propionic acid] | 198 | 53 | 
CS(=O)(=O)c1cc(NC(=O)N(Cc2ccc(C(=O)NCCC(=O)O)cc2)c2ccc(C3=CCCCC3)cc2)ccc1OC(F)(F)F [Example 6, 3-{4-[1-(4-Cyclohexen-1-ylphenyl)-3-(3-methanesulfonyl-4-trifluoromethoxyphenyl)ureidomethyl]benzoylamino}propionic acid] | 177 | 9 | 

The remaining lines, values ahead:

IC50 [1] [nM] | IC50 [2] [nM] | melting point [°C] | SMILES
265 | 42 |  | O=C(O)CCNC(=O)c1ccc(CN(C(=O)Nc2cccc(Br)c2)c2ccc(C3CCCCC3)cc2)cc1 [Example 5, 3-{4-[3-(3-Bromophenyl)-1-(4-Cyclohexylphenyl)ureidomethyl]benzoylamino}propionic acid]
107 | 49 | 167.5 to 168.5 | O=C(O)CCNC(=O)c1ccc(CN(C(=O)Nc2ccc(OC(F)(F)F)c(CO)c2)c2ccc(C3CCCCC3)cc2)cc1 [Example 10, 3-{4-[1-(4-Cyclohexylphenyl)-3-(3-hydroxymethyl-4-trifluoromethoxyphenyl)ureidomethyl]benzoylamino}propionic acid]
76 | 35 |  | N#Cc1cc(NC(=O)N(Cc2ccc(C(=O)NCCC(=O)O)cc2)c2ccc(C3CCCCC3)cc2)cc(C(F)(F)F)c1 [Example 8, 3-{4-[3-(3-Cyano-5-trifluoromethylphenyl)-1-(4-cyclohexylphenyl)ureidomethyl]benzoyl-amino}propionic acid]
90 | 29 |  | O=C(O)CCNC(=O)c1ccc(CN(C(=O)Nc2cc(F)cc(C(F)(F)F)c2)c2ccc(C3CCCCC3)cc2)cc1 [Example 4, 3-{4-[1-(4-Cyclohexylphenyl)-3-(3-fluoro-5-trifluoromethylphenyl)ureidomethyl]benzoylamino}propionic acid]
122 | 42 |  | N#Cc1cc(NC(=O)N(Cc2ccc(C(=O)NCCC(=O)O)cc2)c2ccc(C3=CCCCC3)cc2)cc(C(F)(F)F)c1 [Example 9, 3-{4-[3-(3-Cyano-5-trifluoromethylphenyl)-1-(4-cyclohex-1-enylphenyl)ureidomethyl]benzoyl-amino}propionic acid]
82 | 29 |  | O=C(O)CCNC(=O)c1ccc(CN(C(=O)Nc2cccc(C(F)(F)F)c2)c2ccc(C3CCCCC3)cc2)cc1 [Example 7, 3-{4-[1-(4-Cyclohexylphenyl)-3-(3-trifluoromethylphenyl)ureidomethyl]benzoylamino}propionic acid]
